Our source for the IC50 values is ChEMBL document CHEMBL5726776, “3,5-diamino-6-chloro-N-(N-(4-phenylbutyl)carbamimidoyl) pyrazine-2-carboxamide compounds” (2019).

Broadly, the IC50 is the concentration needed to halve the response being measured.

The assay is described as follows: In Vitro Measure of Sodium Channel Blocking Activity and Reversibility: One assay used to assess mechanism of action and/or potency of the compounds of the present invention involves the determination of lumenal drug inhibition of airway epithelial sodium currents measured under short circuit current (ISC) using airway epithelial monolayers mounted in Using chambers. This assay is described in detail in Hirsh, A. J., Zhang, J., Zamurs, A., et al. Pharmacological properties of N-(3,5-diamino-6-chloropyrazine-2-carbonyl)-N′-4-[4-(2,3-dihydroxypropoxy)phenyl]butyl-guanidine methanesulfonate (552-02), a novel epithelial sodium channel blocker with potential clinical efficacy for CF lung disease. J. Pharmacol. Exp. Ther. 2008; 325(1): 77-88. Cells obtained from freshly excised human, dog, sheep or rodent airways are seeded onto porous 0.4 micron Snapwell™ Inserts (CoStar), cultured at air-liquid interface (ALI) conditions in hormonally defined media, and assayed for sodium transport activity (ISC) while bathed in Krebs Bicarbonate Ringer (KBR) in Using chambers. All test drug additions are to the lumenal bath with half-log dose addition protocols (from 1×10−11 M to 3×10−5 M), and the cumulative change in ISC (inhibition) recorded. All drugs are prepared in dimethyl sulfoxide as stock solutions at a concentration of 1×10−2 M and stored at −20° C. […] After the maximal concentration ([…]) is administered, the lumenal bath is exchanged three times with fresh drug-free KBR solution, and the resultant ISC measured after each wash for approximately 5 minutes in duration. Reversibility is defined as the percent return to the baseline value for sodium current after the third wash. All data from the voltage clamps are collected via a computer interface and analyzed off-line.Dose-effect relationships for all compounds are considered and analyzed by the Prism 3.0 program.
As for `N=C(NCCCCc1ccc(CC[C@H](NCCCN(C[C@H](O)[C@@H](O)[C@H](O)[C@H](O)CO)C[C@H](O)[C@@H](O)[C@H](O)[C@H](O)CO)C(N)=O)c2c1CCCC2)NC(=O)c1nc(Cl)c(N)nc1N`, the IC50 worked out at 7.3 nM.

As to `N=C(NCCCCc1ccc(CC[C@H](NCCCN(C[C@H](O)[C@@H](O)[C@H](O)[C@H](O)CO)C[C@H](O)[C@@H](O)[C@H](O)[C@H](O)CO)C(N)=O)cc1)NC(=O)c1nc(Cl)c(N)nc1N`, the IC50 worked out at 10.6 nM.

In turn, `CCCCCCN(CCCN[C@@H](CCc1ccc(CCCCNC(=N)NC(=O)c2nc(Cl)c(N)nc2N)cc1)C(N)=O)C[C@H](O)[C@@H](O)[C@H](O)[C@H](O)CO` returned an IC50 of 2.6 nM. Against the preceding compound, the IC50 is about 4.1-fold lower.

Turning to `N=C(NCCCCc1ccc2cc(CC[C@H](NCCCN(C[C@H](O)[C@@H](O)[C@H](O)[C@H](O)CO)C[C@H](O)[C@@H](O)[C@H](O)[C@H](O)CO)C(N)=O)ccc2c1)NC(=O)c1nc(Cl)c(N)nc1N`, half-maximal inhibition (IC50) was put at 12.5 nM.

In turn, `N=C(NCCCCc1ccc(C[C@H](NCCCN(C[C@H](O)[C@@H](O)[C@H](O)[C@H](O)CO)C[C@H](O)[C@@H](O)[C@H](O)[C@H](O)CO)C(N)=O)cc1)NC(=O)c1nc(Cl)c(N)nc1N` returned an IC50 of 35.6 nM.

Regarding `CCCCCCN(CCCN[C@@H](Cc1ccc(CCCCNC(=N)NC(=O)c2nc(Cl)c(N)nc2N)cc1)C(N)=O)C[C@H](O)[C@@H](O)[C@H](O)[C@H](O)CO`, 2.9 nM corresponded to half-maximal inhibition (IC50). Compared with the last compound, the IC50 is about 12-fold lower.

Regarding `N=C(NCCCCc1ccc(C[C@H](NCCCN(C[C@H](O)[C@@H](O)[C@H](O)[C@H](O)CO)C[C@H](O)[C@@H](O)[C@H](O)[C@H](O)CO)C(N)=O)c2c1CCCC2)NC(=O)c1nc(Cl)c(N)nc1N`, the IC50 came to 5.5 nM.

`CCCCCCN(CCCN[C@@H](CCc1ccc(CCCCNC(=N)NC(=O)c2nc(Cl)c(N)nc2N)c2ccccc12)C(N)=O)C[C@H](O)[C@@H](O)[C@H](O)[C@H](O)CO`: the IC50 was found to be 14.3 nM. Compared with the last compound, the IC50 is about 2.6-fold higher.

With `CCCCCCN(CCCN[C@@H](Cc1ccc(CCCCNC(=N)NC(=O)c2nc(Cl)c(N)nc2N)c2ccccc12)C(N)=O)C[C@H](O)[C@@H](O)[C@H](O)[C@H](O)CO`, half-maximal inhibition (IC50) required 8.8 nM.

In turn, `CCCCCCN(CCCN[C@@H](Cc1ccc(CCCCNC(=N)NC(=O)c2nc(Cl)c(N)nc2N)c2c1CCCC2)C(N)=O)C[C@H](O)[C@@H](O)[C@H](O)[C@H](O)CO` returned an IC50 of 8.4 nM. The IC50 values of the last two compounds are within 1.5-fold of each other.

Compound `CCCCCCN(CCCN[C@@H](CCc1ccc2cc(CCCCNC(=N)NC(=O)c3nc(Cl)c(N)nc3N)ccc2c1)C(N)=O)C[C@H](O)[C@@H](O)[C@H](O)[C@H](O)CO` gave an IC50 of 6 nM. The IC50 values of the last two compounds are within 1.5-fold of each other.

Compound `CCCCCCN(CCCN[C@@H](Cc1ccc2cc(CCCCNC(=N)NC(=O)c3nc(Cl)c(N)nc3N)ccc2c1)C(N)=O)C[C@H](O)[C@@H](O)[C@H](O)[C@H](O)CO` yielded an IC50 of 11.3 nM. Against the preceding compound, the IC50 is about 1.9-fold higher.

`N=C(NCCCCc1ccc(CC[C@H](NCCCN(C[C@H](O)[C@@H](O)[C@H](O)[C@H](O)CO)C[C@H](O)[C@@H](O)[C@H](O)[C@H](O)CO)C(N)=O)c2ccccc12)NC(=O)c1nc(Cl)c(N)nc1N` showed an IC50 of 24 nM.

`N=C(NCCCCc1ccc2cc(C[C@H](NCCCN(C[C@H](O)[C@@H](O)[C@H](O)[C@H](O)CO)C[C@H](O)[C@@H](O)[C@H](O)[C@H](O)CO)C(N)=O)ccc2c1)NC(=O)c1nc(Cl)c(N)nc1N`: the IC50 amounted to 27.4 nM.

For the compound `N=C(NCCCCc1ccc(C[C@H](NCCCN(C[C@H](O)[C@@H](O)[C@H](O)[C@H](O)CO)C[C@H](O)[C@@H](O)[C@H](O)[C@H](O)CO)C(N)=O)c2ccccc12)NC(=O)c1nc(Cl)c(N)nc1N`, the IC50 was found to be 40.8 nM.
